Test results reported in patent publication US8449898B2 (priority 2007, dated 2013).
Like-named read-outs stand apart in the source and are kept apart here.

What was measured:
[1] = system: Phytophthora infestans (the causal agent of tomato late blight); test: whole plant or invertebrate; format: in vivo; conditions: for pest or weed control at 0.04 ppm: read-out: TLB Obsd, component (b) alone, 0.04 ppm; for TLB Obsd (observed effect, tomato late blight): component (b) alone
[2] = system: Pseudoperonospora cubensis (the causal agent of cucumber downy mildew); test: Test B: cucumber downy mildew, preventive spray on cucumber seedlings; format: in vivo; conditions: for pest or weed control at 0.4 µg/mL: component (b) alone 0.4 ppm (Compound 1 0 ppm); for pest or weed control at 2 µg/mL: component (b) alone 2 ppm (Compound 1 0 ppm); for pest or weed control at 10 µg/mL: component (b) alone 10 ppm (Compound 1 0 ppm); for pest or weed control at 40 µg/mL: component (b) alone 40 ppm (Compound 1 0 ppm)
[3] = Phytophthora infestans, read-out: TLB Obsd, component (b) alone, 2 ppm
[4] = Phytophthora infestans, read-out: TLB Obsd, component (b) alone, 10 ppm
[5] = Phytophthora infestans, read-out: TLB Obsd, component (b) alone, 40 ppm
[6] = Phytophthora infestans, read-out: TLB Obsd, component (b) alone, 200 ppm
[7] = Pseudoperonospora cubensis, read-out: CDM Obsd
[8] = Pseudoperonospora cubensis, component (b) alone, read-out: CDM Obsd
[9] = Pseudoperonospora cubensis, component (b) alone, 2 ppm, read-out: CDM Obsd
[10] = Pseudoperonospora cubensis, component (b) alone, 10 ppm, read-out: CDM Obsd
[11] = Pseudoperonospora cubensis, component (b) alone, 40 ppm, read-out: CDM Obsd
[12] = Pseudoperonospora cubensis, component (b) alone, 200 ppm, read-out: CDM Obsd

C[C@@]1(c2ccc(Oc3ccccc3)cc2)OC(=O)N(Nc2ccccc2)C1=O (racemic) [famoxadone]
pest or weed control at 0.4 ppm ([1]; Phytophthora infestans, read-out: TLB Obsd (disease control rating), Table C, component (b) alone 0.4 ppm): 17% | pest or weed control at 2 ppm ([1]; Phytophthora infestans, read-out: TLB Obsd (disease control rating), Table C, component (b) alone 2 ppm): 26% | pest or weed control at 10 ppm ([1]; Phytophthora infestans, read-out: TLB Obsd (disease control rating), Table C, component (b) alone 10 ppm): 67% | pest or weed control at 40 ppm ([1]; Phytophthora infestans, read-out: TLB Obsd (disease control rating), Table C, component (b) alone 40 ppm): 53% | pest or weed control at 200 ppm ([1]; Phytophthora infestans, read-out: TLB Obsd (disease control rating), Table C, component (b) alone 200 ppm): 66% | pest or weed control at 0.04 ppm ([1]; Phytophthora infestans): 100% | pest or weed control at 2 ppm [1, 3]: 32% | pest or weed control at 10 ppm [1, 4]: 93% | pest or weed control at 40 ppm [1, 5]: 98% | pest or weed control at 200 ppm [1, 6]: 100% | pest or weed control at 0.4 ppm ([2]; Pseudoperonospora cubensis, Table C, component (b) alone 0.4 ppm, read-out: CDM Obsd (disease control rating)): 47% | pest or weed control at 2 ppm ([2]; Pseudoperonospora cubensis, Table C, component (b) alone 2 ppm, read-out: CDM Obsd (disease control rating)): 63% | pest or weed control at 10 ppm ([2]; Pseudoperonospora cubensis, Table C, component (b) alone 10 ppm, read-out: CDM Obsd (disease control rating)): 95% | pest or weed control at 40 ppm ([2]; Pseudoperonospora cubensis, Table C, component (b) alone 40 ppm, read-out: CDM Obsd (disease control rating)): 100% | pest or weed control at 200 ppm ([2]; Pseudoperonospora cubensis, Table C, component (b) alone 200 ppm, read-out: CDM Obsd (disease control rating)): 100% | pest or weed control at 0.4 µg/mL [2, 7]: 47% | pest or weed control at 2 µg/mL [2, 7]: 58% | pest or weed control at 10 µg/mL [2, 7]: 87% | pest or weed control at 40 µg/mL [2, 7]: 100% | pest or weed control at 200 µg/mL ([2]; Pseudoperonospora cubensis, component (b) alone 200 ppm (Compound 1 0 ppm), read-out: CDM Obsd): 100% | pest or weed control at 0.04 ppm [2, 8]: 100% | pest or weed control at 2 ppm [2, 9]: 21% | pest or weed control at 10 ppm [2, 10]: 72% | pest or weed control at 40 ppm [2, 11]: 100% | pest or weed control at 200 ppm [2, 12]: 100%

O=C(Nc1ccccc1-c1ccc(Cl)cc1)c1cccnc1Cl [boscalid]
pest or weed control at 0.4 ppm ([1]; Phytophthora infestans, read-out: TLB Obsd (disease control rating), Table A, component (b) alone 0.4 ppm): 9% | pest or weed control at 2 ppm ([1]; Phytophthora infestans, read-out: TLB Obsd (disease control rating), Table A, component (b) alone 2 ppm): 17% | pest or weed control at 10 ppm ([1]; Phytophthora infestans, read-out: TLB Obsd (disease control rating), Table A, component (b) alone 10 ppm): 17% | pest or weed control at 40 ppm ([1]; Phytophthora infestans, read-out: TLB Obsd (disease control rating), Table A, component (b) alone 40 ppm): 17% | pest or weed control at 200 ppm ([1]; Phytophthora infestans, read-out: TLB Obsd (disease control rating), Table A, component (b) alone 200 ppm): 9% | pest or weed control at 0.04 ppm ([1]; Phytophthora infestans): 25% | pest or weed control at 2 ppm [1, 3]: 0% | pest or weed control at 10 ppm [1, 4]: 0% | pest or weed control at 40 ppm [1, 5]: 17% | pest or weed control at 200 ppm [1, 6]: 32% | pest or weed control at 0.4 ppm ([2]; Pseudoperonospora cubensis, Table A, component (b) alone 0.4 ppm, read-out: CDM Obsd (disease control rating)): 47% | pest or weed control at 2 ppm ([2]; Pseudoperonospora cubensis, Table A, component (b) alone 2 ppm, read-out: CDM Obsd (disease control rating)): 47% | pest or weed control at 10 ppm ([2]; Pseudoperonospora cubensis, Table A, component (b) alone 10 ppm, read-out: CDM Obsd (disease control rating)): 47% | pest or weed control at 40 ppm ([2]; Pseudoperonospora cubensis, Table A, component (b) alone 40 ppm, read-out: CDM Obsd (disease control rating)): 47% | pest or weed control at 200 ppm ([2]; Pseudoperonospora cubensis, Table A, component (b) alone 200 ppm, read-out: CDM Obsd (disease control rating)): 47% | pest or weed control at 0.4 ppm ([2]; Pseudoperonospora cubensis, Table G, component (b) alone at 0.4 ppm, read-out: CDM Obsd): 47% | pest or weed control at 2 ppm ([2]; Pseudoperonospora cubensis, Table G, component (b) alone at 2 ppm, read-out: CDM Obsd): 47% | pest or weed control at 10 ppm ([2]; Pseudoperonospora cubensis, Table G, component (b) alone at 10 ppm, read-out: CDM Obsd): 26% | pest or weed control at 40 ppm ([2]; Pseudoperonospora cubensis, Table G, component (b) alone at 40 ppm, read-out: CDM Obsd): 26% | pest or weed control at 200 ppm ([2]; Pseudoperonospora cubensis, Table G, component (b) alone at 200 ppm, read-out: CDM Obsd): 26% | pest or weed control at 0.04 ppm [2, 8]: 68% | pest or weed control at 2 ppm [2, 9]: 0% | pest or weed control at 10 ppm [2, 10]: 0% | pest or weed control at 40 ppm [2, 11]: 0% | pest or weed control at 200 ppm [2, 12]: 0%

CSC1=N[C@@](C)(c2ccccc2)C(=O)N1Nc1ccccc1 [fenamidone]
pest or weed control at 0.08 ppm ([1]; Phytophthora infestans, read-out: TLB Obsd, component (b) alone, 0.08 ppm): 22% | pest or weed control at 0.4 ppm ([1]; Phytophthora infestans, read-out: TLB Obsd, component (b) alone, 0.4 ppm): 30% | pest or weed control at 2 ppm [1, 3]: 99% | pest or weed control at 10 ppm [1, 4]: 100% | pest or weed control at 40 ppm [1, 5]: 100% | pest or weed control at 0.08 µg/mL ([2]; Pseudoperonospora cubensis, component (b) alone 0.08 ppm (Compound 1 0 ppm), read-out: CDM Obsd): 65% | pest or weed control at 0.4 µg/mL [2, 7]: 47% | pest or weed control at 2 µg/mL [2, 7]: 82% | pest or weed control at 10 µg/mL [2, 7]: 100% | pest or weed control at 40 µg/mL [2, 7]: 100% | pest or weed control at 0.08 ppm ([2]; Pseudoperonospora cubensis, component (b) alone, 0.08 ppm, read-out: CDM Obsd): 0% | pest or weed control at 0.4 ppm ([2]; Pseudoperonospora cubensis, component (b) alone, 0.4 ppm, read-out: CDM Obsd): 0% | pest or weed control at 2 ppm [2, 9]: 85% | pest or weed control at 10 ppm [2, 10]: 100% | pest or weed control at 40 ppm [2, 11]: 100%

CC(C)[C@H](NC(=O)O)C(=O)N[C@H](C)c1nc2ccc(F)cc2s1 [benthiavalicarb]
TLB Obsd (observed effect, tomato late blight) ([1]; 0.08 ppm): 21 | TLB Obsd (observed effect, tomato late blight) ([1]; 0.4 ppm): 82 | TLB Obsd (observed effect, tomato late blight) ([1]; 2 ppm): 100 | TLB Obsd (observed effect, tomato late blight) ([1]; 10 ppm): 100 | TLB Obsd (observed effect, tomato late blight) ([1]; 40 ppm): 100 | CDM Obsd (observed effect, cucumber downy mildew) ([2]; component (b) alone, 0.08 ppm): 0 | CDM Obsd (observed effect, cucumber downy mildew) ([2]; component (b) alone, 0.4 ppm): 75 | CDM Obsd (observed effect, cucumber downy mildew) ([2]; component (b) alone, 2 ppm): 100 | CDM Obsd (observed effect, cucumber downy mildew) ([2]; component (b) alone, 10 ppm): 100 | CDM Obsd (observed effect, cucumber downy mildew) ([2]; component (b) alone, 40 ppm): 100
